From patent US7320984B2, “Remedies or preventives for urinary frequency or urinary incontinence and morphinan derivatives having nitrogen-containing heterocyclic group” (Toray Industries, Inc., priority 2002, dated 2008)

System: rhythmic bladder contractions in rats
Experiment: Inhibitory effect against rhythmic bladder contractions in rats
Format: in vivo
Settings: anesthetized female SD rats, intravenous
Procedure, shortened: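 Urethane-anesthetized (1.0 g/kg i.p.) female SD rats; saline infused into bladder to induce rhythmic contractions, intravesical pressure monitored. Compound given i.v. at 1 ml/kg in saline, 10% or 20% aqueous DMSO, or 5% aqueous xylitol. Inhibitory time = period intravesical pressure stayed ≤50% of post-dose level (onset within 10 min); vehicles tested alone.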

For `C=CCN1CC[C@]23c4c5ccc(O)c4O[C@H]2[C@H](N2C(=O)c4ccc(Cl)cc4C2=O)CC[C@@]3(O)[C@H]1C5` [Compound 57, N-(17-allyl-4,5α-epoxy-3,14-dihydroxymorphinan-6β-yl)-4-chlorophthalimide], the “Mean Inhibitory Time of Rhythmic Bladder Contractions” value (“Mean Inhibitory Time” for short) (dose 0.1 mg/kg body weight) was 24.2 min.
For `C=CCN1CC[C@]23c4c5ccc(O)c4O[C@H]2[C@H](N2Cc4ccc(F)cc4C2=O)CC[C@@]3(O)[C@H]1C5` [Compound 90, 2-(17-allyl-4,5α-epoxy-3,14-dihydroxy-morphinan-6β-yl)-6-fluoro-2,3-dihydro-isoindol-1-one], the “Mean Inhibitory Time” value (dose 0.1 mg/kg body weight) was 17.6 min.
For `O=C1c2cccc(F)c2C(=O)N1[C@@H]1CC[C@@]2(O)[C@H]3Cc4ccc(O)c5c4[C@@]2(CCN3CC2CC2)[C@H]1O5` [Compound 17, N-(17-cyclopropylmethyl-4,5α-epoxy-3,14-dihydroxy-morphinan-6β-yl)-3-fluorophthalimide], the “Mean Inhibitory Time” value (dose 0.005 mg/kg body weight) was 13.2 min.
With `CCCN1CC[C@]23c4c5ccc(O)c4O[C@H]2[C@H](N2C(=O)c4cccc(N)c4C2=O)CC[C@@]3(O)[C@H]1C5` [Compound 101, N-(4,5α-epoxy-3,14-dihydroxy-17-propyl-morphinan-6β-yl)-3-amino-phthalimide] the “Mean Inhibitory Time” value (dose 0.3 mg/kg body weight) was 15.1 min.
With `C=CCN1CC[C@]23c4c5ccc(O)c4O[C@H]2[C@@H](N2Cc4ccccc4C2=O)CC[C@@]3(O)[C@H]1C5` [Compound 87, 2-(17-allyl-4,5α-epoxy-3,14-dihydroxy-morphinan-6α-yl)-2,3-dihydro-isoindol-1-one] the “Mean Inhibitory Time” value (dose 0.1 mg/kg body weight) was 6.4 min.
For `C=CCN1CC[C@]23c4c5ccc(O)c4O[C@H]2[C@H](N2C(=O)c4ccc(F)cc4C2=O)CC[C@@]3(O)[C@H]1C5` [Compound 58, N-(17-allyl-4,5α-epoxy-3,14-dihydroxymorphinan-6β-yl)-4-fluorophthalimide], the “Mean Inhibitory Time” value (dose 0.03 mg/kg body weight) was 19.3 min.
In the case of `O=C1C(c2ccccc2)=C(c2ccccc2)C(=O)N1[C@@H]1CC[C@@]2(O)[C@H]3Cc4ccc(O)c5c4[C@@]2(CCN3CC2CC2)[C@H]1O5` [Compound 70, N-(17-cyclopropylmethyl-4,5α-epoxy-3,14-dihydroxymorphinan-6β-yl)-2,3-diphenylmaleimide], the “Mean Inhibitory Time” value (dose 0.1 mg/kg body weight) is reported as 8.9 min.
For `O=C1c2ccccc2S(=O)(=O)N1[C@@H]1CC[C@@]2(O)[C@H]3Cc4ccc(O)c5c4[C@@]2(CCN3CC2CC2)[C@H]1O5` [Compound 108, N-(17-cyclopropylmethyl-4,5α-epoxy-3,14-dihydroxy-morphinan-6β-yl)-O-sulfonebenzimide], the “Mean Inhibitory Time” value (dose 0.01 mg/kg body weight) was 25.6 min.
`O=C1C/C(=C\C2CCCCC2)C(=O)N1[C@@H]1CC[C@@]2(O)[C@H]3Cc4ccc(O)c5c4[C@@]2(CCN3CC2CC2)[C@H]1O5` [Compound 23, N-(17-cyclopropylmethyl-4,5α-epoxy-3,14-dihydroxy-morphinan-6β-yl)-2-cyclohexylmethylidene-succinimide] was tested, and the “Mean Inhibitory Time” value (dose 1.0 mg/kg body weight) was 32.0 min.
